What was measured:
[1] = test system: A431 skin cancer cell line; experiment: Cancer cell growth inhibition, A431 (SRB); conditions: Homo sapiens, A-431, 72 h, read-out: ID50 (nM) A431
[2] = test system: SK-Br3 breast cancer cell line; experiment: Cancer cell growth inhibition, SK-Br3 (SRB); conditions: Homo sapiens, SK-BR-3, 72 h, read-out: ID50 (nM) SK-Br3

IC50 [1] [nM]	IC50 [2] [nM]	SMILES
400	50	C=CC(=O)Nc1cccc(Nc2ncnc3cc(OC)c(OC4CCN(C(=O)C=C)CC4)cc23)c1 [Example 75, N-(3-(6-(1-acryloylpiperidin-4-yloxy)-7-methoxyquinazolin-4-ylamino)phenyl)acrylamide]
300	100	C=CC(=O)N1CCC(Oc2cc3c(Nc4cccc(S)c4)ncnc3cc2OC)CC1 [Example 76, 1-(4-(4-(3-mercaptophenylamino)-7-methoxyquinazolin-6-yloxy)piperidin-1-yl)pro-2-pen-1-one]
26	7	C=CC(=O)N1CCC(Oc2cc3c(Nc4cccc(CCl)c4)ncnc3cc2OC)CC1 [Example 77, 1-(4-(4-(3-(chloromethyl)phenylamino)-7-methoxyquinazolin-6-yloxy)piperidin-1-yl)pro-2-pen-1-one]
109	65	C=CC(=O)N1CCC(Oc2cc3c(Nc4ccc(O)c(Cl)c4)ncnc3cc2OC)CC1 [Example 78, 1-(4-(4-(3-chloro-4-hydroxyphenylamino)-7-methoxyquinazolin-6-yloxy)piperidin-1-yl)pro-2-pen-1-one]
129	37	C=CC(=O)N1CCC(Oc2cc3c(Nc4ccc(O)c(F)c4)ncnc3cc2OC)CC1 [Example 79, 1-(4-(4-(3-fluoro-4-hydroxyphenylamino)-7-methoxyquinazolin-6-yloxy)piperidin-1-yl)prop-2-en-1-one]
190	268	CC#CC(=O)N1CCC(Oc2cc3c(Nc4ccc(F)c(Cl)c4F)ncnc3cc2OC)CC1 [Example 80, 1-(4-(4-(3-chloro-2,4-difluorophenylamino)-7-methoxyquinazolin-6-yloxy)piperidin-1-yl)but-2-yn-1-one]
38	141	COc1cc2ncnc(Nc3ccc(F)c(Cl)c3F)c2cc1OC1CCN(C(=O)C=C(C)C)CC1 [Example 81, 1-(4-(4-(3-chloro-2,4-difluorophenylamino)-7-methoxyquinazolin-6-yloxy)piperidin-1-yl)-3-methylbut-2-en-1-one]
48	134	CNC(=O)/C=C/C(=O)N1CCC(Oc2cc3c(Nc4ccc(F)c(Cl)c4F)ncnc3cc2OC)CC1 [Example 82, (E)-4-(4-(4-(3-chloro-2,4-difluorophenylamino)-7-methoxyquinazolin-6-yloxy)piperidin-1-yl)-N-methyl-4-oxobut-2-enamide]
9	23	COC(=O)/C=C\C(=O)N1CCC(Oc2cc3c(Nc4ccc(F)c(Cl)c4F)ncnc3cc2OC)CC1 [Example 83, (Z)-methyl 4-(4-(4-(3-chloro-2,4-difluorophenylamino)-7-methoxyquinazolin-6-yloxy)piperidin-1-yl)-4-oxobut-2-enoate]
8	21	COC(=O)/C=C\C(=O)N1CCC(Oc2cc3c(Nc4ccc(Cl)c(Cl)c4F)ncnc3cc2OC)CC1 [Example 84, (Z)-methyl 4-(4-(4-(3,4-dichloro-2-fluorophenylamino)-7-methoxyquinazolin-6-yloxy)piperidin-1-yl)-4-oxobut-2-enoate]
41	395	COc1cc2ncnc(Nc3ccc(F)c(Cl)c3F)c2cc1OC1CCN(C(=O)/C=C\C(=O)O)CC1 [Example 85, (Z)-4-(4-(4-(3-chloro-2,4-difluorophenylamino)-7-methoxyquinazolin-6-yloxy)piperidin-1-yl)-4-oxobut-2-enoic acid]
322	> 1000	COc1cc2ncnc(Nc3ccc(Cl)c(Cl)c3F)c2cc1OC1CCN(C(=O)/C=C\C(=O)O)CC1 [Example 86, (Z)-4-(4-(4-(3,4-dichloro-2-fluorophenylamino)-7-methoxyquinazolin-6-yloxy)piperidin-1-yl)-4-oxobut-2-enoic acid]
516	469	COc1cc2ncnc(Nc3ccc(Cl)c(Cl)c3F)c2cc1OC1CCN(C(=O)/C=C/C(=O)O)CC1 [Example 87, (E)-4-(4-(4-(3,4-dichloro-2-fluorophenylamino)-7-methoxyquinazolin-6-yloxy)piperidin-1-yl)-4-oxobut-2-enoic acid]
187	> 1000	COc1cc2ncnc(Nc3ccc(F)c(Cl)c3F)c2cc1OC1CCN(C(=O)/C=C/C(=O)NO)CC1 [Example 88, (E)-4-(4-(4-(3-chloro-2,4-difluorophenylamino)-7-methoxyquinazolin-6-yloxy)piperidin-1-yl)-N-hydroxy-4-oxobut-2-enamide]
14	85	COc1cc2ncnc(Nc3ccc(Cl)c(Cl)c3F)c2cc1OC1CCN(C(=O)/C=C\Cl)CC1 [Example 89, (Z)-3-chloro-1-(4-(4-(3,4-dichloro-2-fluorophenylamino)-7-methoxyquinazolin-6-yloxy)piperidin-1-yl)prop-2-en-1-one]
39	13	COc1cc2ncnc(Nc3ccc(Cl)c(Cl)c3F)c2cc1OC1CCN(C(=O)/C=C/Cl)CC1 [Example 90, (E)-3-chloro-1-(4-(4-(3,4-dichloro-2-fluorophenylamino)-7-methoxyquinazolin-6-yloxy)piperidin-1-yl)prop-2-en-1-one]
50	194	C=C(NC(C)=O)C(=O)N1CCC(Oc2cc3c(Nc4ccc(Cl)c(Cl)c4F)ncnc3cc2OC)CC1 [Example 91, N-(3-(4-(4-(3,4-dichloro-2-fluorophenylamino)-7-methoxyquinazolin-6-yloxy)piperidin-1-yl)-3-oxoprop-1-en-2-yl)acetamide]
4	8	COc1cc2ncnc(Nc3ccc(F)c(Cl)c3F)c2cc1O[C@H]1CCN(C(=O)/C=C/CN(C)C)C1 [Example 92, (E)-1-((3S)-3-(4-(3-chloro-2,4-difluorophenylamino)-7-methoxyquinazolin-6-yloxy)pyrrolidin-1-yl)-4-(dimethylamino)but-2-en-1-one]
28	40	CCN(CC)C/C=C/C(=O)N1CC[C@H](Oc2cc3c(Nc4ccc(F)c(Cl)c4F)ncnc3cc2OC)C1 [Example 93, (E)-1-((3S)-3-(4-(3-chloro-2,4-difluorophenylamino)-7-methoxyquinazolin-6-yloxy)pyrrolidin-1-yl)-4-(diethylamino)but-2-en-1-one]
85	123	COc1cc2ncnc(Nc3ccc(F)c(Cl)c3F)c2cc1O[C@H]1CCN(C(=O)/C=C/CN2CCOCC2)C1 [Example 94, (E)-1-((3S)-3-(4-(3-chloro-2,4-difluorophenylamino)-7-methoxyquinazolin-6-yloxy)pyrrolidin-1-yl)-4-morpholinobut-2-en-1-one]
8	23	COc1cc2ncnc(Nc3ccc(F)c(Cl)c3F)c2cc1O[C@H]1CCN(C(=O)/C=C/CN2CCCC2)C1 [Example 95, (E)-1-((3S)-3-(4-(3-chloro-2,4-difluorophenylamino)-7-methoxyquinazolin-6-yloxy)pyrrolidin-1-yl)-4-(pyrrolidin-1-yl)but-2-en-1-one]
8	46	COc1cc2ncnc(Nc3cccc(Cl)c3F)c2cc1O[C@H]1CCN(C(=O)/C=C/CN(C)C)C1 [Example 96, (E)-1-((3S)-3-(4-(3-chloro-2-fluorophenylamino)-7-methoxyquinazolin-6-yloxy)pyrrolidin-1-yl)-4-(dimethylamino)but-2-en-1-one]

Source: patent US8188102B2, “Amide derivative for inhibiting the growth of cancer cells” (Hanmi Holdings Co., Ltd., priority 2007, dated 2012)
